# Data taken from a melting point compilation (Tetko et al.; mined from patent text by program, amines drawn as free bases though some values may be those of a salt).
row,SMILES,melting point [°C]
1,CCn1cc(C(=O)O)c(=O)cc1-c1c(Cl)cccc1Cl,200 to 201
2,CNc1nnc(SCc2ccccn2)s1,73 to 75
3,CCCNC1=NS(=O)(=O)c2cc([N+](=O)[O-])ccc2N1,268 to 270
4,CC(C)(C)NCC(O)c1cc(Cl)c(NC(=O)NC(C)(C)C)c(Cl)c1 (stereo not given),167 to 169
5,CC12CCC(C(=Cc3ccccc3[N+](=O)[O-])C1=O)C2(C)C (stereo not given),118
6,CCCSC(C(N)=O)c1cc(C)cc(C(=O)c2ccc(F)cc2)c1N (stereo not given),130 to 132
7,CC(C)n1nc(-c2cc(N)cnc2-c2ccccc2)ccc1=O,147 to 148
8,COc1ccc(Cl)c(CC#N)c1,62 to 65
9,CC(=O)C(=NNc1ccccc1)C(=O)N(C)C,131 to 133
10,CN(C)C(=O)Sc1nc(-c2ccccc2)cn1-c1ccc([N+](=O)[O-])cn1,200 to 201
11,CC1(C)C=C(C(=O)c2ccc3c(c2)CCN(C(N)=O)C3)C(C)(C)CC1,78.6 to 79.7
12,O=CC(CC(=O)O)NC(=O)[C@@H]1CCCN1C(=O)c1nc(CCc2ccccc2)c[nH]1 (stereo not given in full),102 to 104
13,COC(=O)C(C)(C)CCCOc1cc(C)c(NC(C)=O)cc1C,99 to 100
14,CN(c1cc(OC(F)(F)F)cc2cc(C(N)=O)[nH]c12)S(=O)(=O)c1cccs1,228 to 229
15,Cc1ccc(-c2[nH]c3c(Br)cc(Br)cc3c(=O)c2Cc2ccncc2)cc1,206 to 208
16,CC1(CN2CCN(Cc3ccc(C(F)(F)F)cc3)C(=O)C2)Cn2cc([N+](=O)[O-])nc2O1 (stereo not given),88 to 93
17,Brc1cn2c(Br)cnc2c(N2CCOCC2)n1,141
18,C=Cn1cc(C(=O)O)c(=O)c2cc(F)c(N3CCNCC3)cc21,248 to 251
19,O=C1C(=O)N(c2ccc(Cl)cc2)C(=O)N1c1ccccc1,154
20,COc1ccc(-n2nnnc2CC(=O)C(F)(F)F)cc1C=O,128
21,COc1ccccc1CCl,69.5 to 70.5
22,CCCCCCS(=O)(=O)c1nnnn1CC(=O)OCC,40 to 42
23,O=c1cc(-c2ccc(Cl)cc2)oc2ccc(OCCCCCCN3CCC(O)CC3)cc12,127 to 128
24,CCCCc1ncc(C(=O)OCC)c(=O)n1Cc1ccc(-c2ccccc2-c2nc(=O)o[nH]2)cc1,151 to 154
25,COc1ccc(OC)c(OCCCCl)c1,48 to 50

row,SMILES,melting point [°C]
1,C#Cc1ccc2c(c1)C(=O)N(c1ccc3c(c1)C=C3)C2=O,191 to 192
2,CC(C)(C)N1C(O)c2cccc(Cl)c2S1(=O)=O (stereo not given),139 to 141
3,CCOC(=O)C(Cc1ccc(Cl)c(OC(F)(F)C(F)F)c1)C(=O)c1ccc(F)cc1 (stereo not given),73 to 74
4,Cn1nc(-c2cnc(N)nc2-c2ccc(Cl)cc2)ccc1=O,264
5,CN1C(c2ccc3ccccc3c2)CC(=O)CC1c1ccc2ccccc2c1 (stereo not given),209 to 212
6,COc1ccc(CNC(=O)c2ccc3n2Cc2ccccc2N(C(=O)c2ccc(-c4ccccc4C)c(OC)c2)C3)cc1,178 to 179
7,CCOc1ccc2c(c1)n(C1CCCCC1)c(=O)n2S(=O)(=O)c1ccc(NC(=O)N(C)C(C)(C)C)cc1OC,208
8,Cc1nc(N)nc(N)c1-c1cc(Cl)ccc1Cl,226 to 228
9,COC(=O)c1c(CC(C)C)nc2ccc(Br)cc2c1-c1ccccc1,108 to 110
10,COc1ccc(C2CCN(C(N)=O)CC2)cc1OC1CCCC1,149 to 150
11,O=c1[nH]c(-c2ccccc2Br)nc2c1CCCC2,193
12,O=C1N(Cc2ncccc2C(F)(F)F)c2c(F)cccc2C12COc1cc3c(cc12)OCCO3 (stereo not given),241 to 243
13,Nc1cnc2c(c1)CCCC2,97 to 98
14,CC(C)(C)NS(=O)(=O)c1cccc(-c2ccc3cnc(Nc4ccc(=O)[nH]c4)nn23)c1,270 to 271
15,NP(N)(=O)OCCCCl,111 to 112
16,C1=COc2ccc3[nH]c4c(c3c2=C1)C=CN=CC=4,> 177
17,CCC1(CC)COC(c2cccc(NC(=O)NC)c2)OC1,112 to 125
18,COc1ccc(C(O)c2ccccc2OC)cn1 (stereo not given),83 to 84
19,Cc1ccc2cccc(OCc3cc(N)ccc3Cl)c2n1,176 to 178
20,Cc1c[nH]c2c1C(=O)CC(c1cccs1)C2 (stereo not given),195 to 196
21,NS(=O)(=O)c1cc2c(cc1Cl)NC(CCCCCO)NS2(=O)=O (stereo not given),190
22,COCCC1(c2ccc(O)cc2)N=CC=N1,173 to 176
23,COc1ccc(CSCC(=O)NO)cc1OC,78
24,COc1cc(-c2nc(C)no2)cc([N+](=O)[O-])c1OC,111
25,CN(Cc1cc2c(=O)c(C(=O)NCc3ccc(Cl)cc3)cn(C)c2o1)CC(O)c1ccc(O)cc1 (stereo not given),72 to 75

row,SMILES,melting point [°C]
1,Cc1cccc(NC(=O)c2cc(Cl)cc(C)n2)n1,130
2,COc1cccc(NC(=O)NC2N=C(c3ccccc3)c3ccc(C)cc3N(C)C2=O)c1 (stereo not given),184 to 188
3,CCOC(=O)CCc1c[nH]c2ccc([N+](=O)[O-])cc12,118 to 121
4,CCOCc1nc2c(N)nc3ccccc3c2n1CC1CC(C)=NO1 (stereo not given),204 to 205
5,COC(=O)c1ncsc1S,100
6,CC(C)c1ccc(NC(=O)N2CCc3cc(S(=O)(=O)N4CCN(c5cccc(Cl)c5)CC4)ccc32)cc1,182
7,O=C1Nc2ccc(C(F)(F)F)cc2C1(O)c1cc(Cl)ccc1O (stereo not given),156 to 158
8,O=C(NCCCn1cncn1)c1ccc([N+](=O)[O-])o1,176 to 177
9,Cc1ccccc1CC(=NC#N)NC(NC(=O)Cc1ccc(C#N)cc1)C(C)(C)C (stereo not given),199 to 201
10,COC1=C(OC)C(=O)C2=C(CCC(CCOc3cc(OC)c(OC)c(OC)c3)CC2)C1=O,91 to 93
11,CCc1ccc2cc(C3(Cn4ccnc4)OCCO3)ccc2c1,251
12,Cc1ccc2[nH]c(=O)c(-c3ccccc3)cc2c1,212 to 213
13,CCCCCC1=NNC(=O)CC1,40
14,CCCn1nc(C(C)C)c(C(=O)O)c1Cc1ccc(-c2ccccc2NS(=O)(=O)C(F)(F)F)cc1,75 to 78
15,c1cc(-c2cnc(-c3cccc(-c4cnco4)n3)o2)cc(-c2cnc(-c3cccc(-c4cnco4)n3)o2)c1,> 250
16,CC(C)Oc1ccc(C(=O)N2CCNC2=Nc2c(Cl)cccc2Cl)cc1,146 to 148
17,N#Cc1cc(Oc2ccc(Cl)cc2)ccc1N,116 to 118
18,CNC(=O)Cn1nc(-c2ccc(OC)cc2)cc(C(=O)NC)c1=O,250 to 251
19,CC(C)c1nn(C(=O)NC(C)(C)CCc2ccccc2Cl)c(=O)n1N,159
20,O=c1c2ccc(O)cc2[nH]n1Cc1ccccc1,206 to 207
21,O=C1CC2(CCNCC2)c2cc(Br)ccc2N1,218
22,Cn1ccnc1N1CCN(CC(=O)c2ccc(NS(C)(=O)=O)cc2)CC1,164 to 165
23,O=C(c1cccs1)N1CCc2cc(S(=O)(=O)n3cc(-c4ccccc4)[nH]c3=O)ccc21,258 to 260
24,CCCn1nnc2c(C(N)=O)ncn2c1=O,167
25,CN(c1cccc2cc(-c3ncc(C(=O)O)s3)[nH]c12)S(=O)(=O)c1cccs1,258 to 260
